In US8951963B2, “Active cores of peptide triazole HIV-1 entry inhibitors” (priority 2009, dated 2015):
Entries after “also recorded” stand apart in the source; their conditions may differ. *1 amine or outer side, *2 acyl side, *3 side chain or, on linkers, in order; H or OH if unused. Where a SMILES comes first, the peptide text is derived from it. [ ]: non-standard residue; d: D form. X1 = O=C([C@@H]1C[C@H](n2cc([C]34[CH]5[CH]6[CH]7[CH]3[Fe]6754389%10[CH]4[CH]3[CH]8[CH]9[CH]4%10)nn2)CN1[*:1])[*:2]; Cit = NC(=O)NCCC[C@H](N)C(=O)O

Key:
[1] = molecular target: T1, sCD4 (Homo sapiens, UniProt P01730); experiment: SPR control: direct binding of peptide to sCD4 surface; conditions: SPR control experiment
T1 construct: soluble four domain CD4 (sCD4); made in house; host or cells: CHO cells

[2] = system: Pseudotyped HIV-1BaL; type: cell-based; conditions: Table 12; HOS.CD4.CCR5 cells, 48 hours; NA = not active; read-out: IC50 (antiviral)
[3] = molecular target: T2, HIV-1YU-2 gp120 binding to sCD4 (Human immunodeficiency virus type 1 group M subtype B, UniProt P35961); conditions: Table 12; 100 nM gp120; NA = not active
T2 construct: made in house; host or cells: Drosophila S2 cells (gp120); CHO cells (sCD4)
Source text: (§1) Where Rhigh is the response value at high inhibitor concentrations and Rlow is response at low inhibitor concentrations. Cone is the concentration of inhibitor, and A1 and A2 are fitting parameters. At IC50 the following is true:
(§2) Under this condition, A1=Conc and is therefore taken as the desired so parameter.

[4] = system: mAb 17b; experiment: SPR control: direct binding of peptide to mAb 17b surface; conditions: SPR control experiment
[5] = system: viruses pseudotyped with the VSV-G envelope; type: cell-based
[6] = molecular target: T3, HIV-1 YU2 gp120 (Human immunodeficiency virus type 1 group M subtype B, UniProt P35961); type: binding; conditions: for dissociation rate constant (koff): Table 11, dissociation rate
T3 construct: made in house; host or cells: Drosophila S2 cells
Experimental: Surface plasmon resonance (SPR) interaction analyses were performed on a Biacore® 3000 optical biosensor (GE). All experiments were carried out at 25° C. using standard PBS, pH 7.4, with 0.005% Surfactant P20.
Regeneration of the surface was achieved by a one 5-second pulse of 10 mM glycine, pH 1.5.
SPR data analyses were performed using BIAEvaluation 4.0 software (GE). […] Experimental data were fitted to a simple 1:1 binding model with a parameter included for mass transport. […] The inhibition curve was converted into a calibration curve by the use of a fitting function. The fitting was done using the 4-parameter equation in BIAevaluation software: […]

[7] = molecular target: T4, HIV-1YU-2 gp120 binding to mAb 17b (Human immunodeficiency virus type 1 group M subtype B, UniProt P35961); conditions: Table 12; 100 nM gp120; NA = not active
T4 construct: made in house; host or cells: Drosophila S2 cells (gp120)
Source text: as §1, §2

[8] = molecular target: T5, gp120 (Human immunodeficiency virus type 1 group M subtype B, UniProt P35961); type: binding, HIV-1; conditions: ITC, 25° C., PBS pH 7.4
T5 construct: made in house; host or cells: Drosophila S2 cells
Experimental: FIGS. 14A-14D are a series of graphs of calorimetric titration data of gp120 with various peptides. […] Data was obtained as 25° C. in PBS, pH 7.4. Experiments in FIGS. 14A and 14B were carried out using a VP-ITC, where 2 μM gp120 in the calorimetric cell (˜1.4 mL) was titrated with 10 μL aliquots of peptide at concentration of 30 μM.
Isothermal titration calorimetric experiments were performed using high-precision calorimetric systems of model VP-ITC or ITC20 from MicroCal Inc. The titrations were performed by stepwise addition of peptide to gp120 contained in the calorimetric cell at a constant temperature of 25° C. […] For the experiments carried out in the VP-ITC the concentration of gp120 was about 2 μM and the syringe contained the peptide at a concentration about 30 μM. For the experiment carried out using ITC20 gp120 was prepared at about 4 μM and the peptide at 50-100 μM. The solutions contained within the calorimetric cells and injector syringes were prepared in PBS, pH 7.4 and thoroughly degassed to avoid bubble formation in the calorimetric cell. The heat evolved upon each injection of the peptide solution was obtained from the integral of the calorimetric signal. The heat associated with binding of a ligand to the protein in the cell was obtained by subtracting the heat of dilution from the heat of reaction.

[9] = molecular target: T3, HIV-1 YU2 gp120; experiment: biochemical; type: binding; conditions: Kd (affinity) for HIV-1 YU2 gp120 as measured by SPR
Experimental: All surface plasmon resonance experiments (SPR) were performed on a BIA3000 optical biosensor (Biocore, Inc., Uppsala, Sweden). […] For direct binding experiments, YU2 gp120 was immobilized on the surface (˜4000 RU); peptide analytes in PBS buffer were passed over the surface at a flow rate of 50 μL/min, with 5 minute association phase and 5 minute dissociation phase. […] The indicated analytes were passed over the surfaces at a flow rate of 50 μL/minute, with 2.5 minute association phase and 2.5 minute dissociation phase.
Data analysis was performed using BIAEvaluation® 4.0 software (Biacore Inc., NJ). The responses of a buffer injection and responses from the control surface to which the mAb 2B6R was immobilized, were subtracted to account for nonspecific binding. Experimental data were fitted to a simple 1:1 Langmuir binding model with a parameter included for mass transport. The average kinetic parameters (association [ka] and dissociation [kd] rates) generated from a minimum of four datasets were used to define equilibrium association (KA) and dissociation constants (KD).

SMILES	direct binding to sCD4 [1]	IC50 [2]	sCD4 (IC50) [3]	direct binding to 17b [4]	inhibition of negative control viruses pseudotyped with the VSV envelope [5]	dissociation rate constant (koff) [6]	affinity relative to 12 mer peptide of HNG-156 ([6]; lower affinity)	mAb 17b (IC50) [7]	ΔH [8]	−TΔS [8]	Kd [9]
CSCC[C@H](NC(=O)[C@H](CCSC)NC(=O)[C@H](C)NC(=O)[C@H](CCC(=O)O)NC(=O)[C@H](CO)NC(=O)[C@H](Cc1c[nH]c2ccccc12)NC(=O)[C@@H]1C[C@H](n2cc([C]34[CH]5[CH]6[CH]7[CH]3[Fe]6754389%10[CH]4[CH]3[CH]8[CH]9[CH]4%10)nn2)CN1)C(N)=O (stereo partly drawn) [UM10] (H-[X1]WSEAMM-NH2; N-terminus and C-terminus assumed)	neither UM10 nor UM12 exhibited direct binding	35 ± 15 µM	unable to inhibit; also recorded: no IC50 value could be calculated	neither UM10 nor UM12 exhibited direct binding	Neither of these conjugates inhibited	8.90E−04 ± 1.2 1/S	100 fold	unable to inhibit			
CC[C@H](C)[C@H](NC(=O)[C@H](CC(N)=O)NC(=O)[C@H](CC(N)=O)NC(=O)[C@@H](N)CCCNC(N)=O)C(=O)N1C[C@@H](n2cc([C]34[CH]5[CH]6[CH]7[CH]3[Fe]6754389%10[CH]4[CH]3[CH]8[CH]9[CH]4%10)nn2)C[C@H]1C(=O)N[C@@H](Cc1c[nH]c2ccccc12)C(=O)N[C@@H](CO)C(N)=O (stereo partly drawn) [UM24] (H-[Cit]NNI[X1]WS-NH2; N-terminus and C-terminus assumed)						2.9E−03 ± 1.2 1/S			-69.9 kJ/mol	+6.3 kcal/mol	~0.021 µM
